Reference: patent publication US7970552B1, “Diagnostic system for selecting nutrition and pharmacological products for animals” (priority 2008, dated 2011)

Test system: cartilage cells of individual affected unhealthy dogs
Assay: Cartilage cells of affected dogs cultured in vitro with 0 or 60 mg/l curcumin or andrographolide for 6 hours, microarray fold change in gene expression
Format: cell-based, German Shepherd dogs
Settings: for Fold change of gene expression, mean: 60 mg/l vs 0, 6 hours; for Net effect of the NBC on fold change, mean: net of fold change in unhealthy dogs
Protocol: Total RNA of cells was extracted using phenol/guanidine HCI reagents (Trizol, Invitrogen). RNA quality integrity was analysed using the Agilent 2100 Bioanalyser (Agilent Technologies) of the sample. The samples determined to have no, or minimal, loss of integrity and thus were considered suitable for use in experiments. mRNA was amplified for each sample, starting with 500 ng total RNA using a commercially available kit (Ambion T7 MEGAscript high yield transcription kit, Ambion). The mRNA was quantified using a spectrophotometer. mRNA was directly reverse transcribed to cDNA from […] using the Superscript indirect cDNA labeling Core kit (Invitrogen, Milan, Italy).
Two micrograms of cDNA were labelled with Cyanine-3dCTP (Cy3) or Cyanine-5dCTP (Cy5) fluorochromes using the cDNA labeling purification module kit (Invitrogen, Milan, Italy). Samples were hybridised to a canine specific, whole genome 44k spot 60mer oligonucleotide (Agilent Technologies). The labelled cDNA was appropriately coupled and used for competitive hybridization on the same microarray at 42° C. for 16 h. Fluorescence incorporation was determined using a spectrophotometer. The relative intensity of labelled cDNA in was acquired with ScanArray LITE scanner (PerkinElmer Life Sciences, Inc).
Expression data were then exported into Excel 2007 and processed with SAM software; comparison between groups was achieved using paired student's t tests. […] Correction for multiple hypothesis testing was performed using the false discovery rate (FDR).
Searching within the nutrient data set for biologically active nutrients with anti-arthritic and anti-inflammatory properties identified curcumin and androgropholide as the appropriated compositions. The cartilage cells of individual affected unhealthy dogs were cultured in vitro with 0, or 60 mg/l of curcumin or androgropholide for 6 hours. At the end of the incubation, these cartilage cells from individual affected dogs were washed and used for RNA extraction. For the microarray analysis, co-hybridisation of the RNA from 0 and 60 mg/l was conducted, using the material and the methods described previously.
The table below reports the mean fold change in gene expression of two biologically active nutrients, namely curcumin and andrographolide. […] The dose to be added to the food or the nutrient composition is computed using literature data, which indicates a dose of 4 mg/kg body weight for either curcumin or andrographolide.

[1] = cartilage cells of affected dogs, 60 mg/l, 6 hours

Compound: C=C1CC[C@@H]2[C@](C)(CO)[C@H](O)CC[C@@]2(C)[C@@H]1C/C=C1/C(=O)OC[C@H]1O [Androgrpholide]
- Fold change of gene expression, mean (gene ACTB): −1.0
- Net effect of the NBC on fold change, mean (gene ACTB, 60 mg/l, 6 hours): 2.8
- Fold change of gene expression, mean (gene ACTR3): 1.0
- Net effect of the NBC on fold change, mean (gene ACTR3, 60 mg/l, 6 hours): 1.3
- Fold change of gene expression, mean (gene ADK): 0.0
- Net effect of the NBC on fold change, mean (gene ADK, 60 mg/l, 6 hours): 3.6
- Fold change of gene expression, mean (gene ANKRD10): 0.0
- Net effect of the NBC on fold change, mean (gene ANKRD10, 60 mg/l, 6 hours): 5.2
- Fold change of gene expression, mean (gene CAV1): 0.0
- Net effect of the NBC on fold change, mean (gene CAV1, 60 mg/l, 6 hours): 4.8
- Fold change of gene expression, mean (gene CDH11): −1.0
- Net effect of the NBC on fold change, mean (gene CDH11, 60 mg/l, 6 hours): 5.9
- Fold change of gene expression, mean (gene COL3A1): −2.0
- Net effect of the NBC on fold change, mean (gene COL3A1, 60 mg/l, 6 hours): 7.5
- Fold change of gene expression, mean (gene COX1): 0.0
- Net effect of the NBC on fold change, mean (gene COX1, 60 mg/l, 6 hours): 0.8
- Fold change of gene expression, mean (gene COX2): 0.0
- Net effect of the NBC on fold change, mean (gene COX2, 60 mg/l, 6 hours): 23.0
- Fold change of gene expression, mean (gene IGFBP7): −2.0
- Net effect of the NBC on fold change, mean (gene IGFBP7, 60 mg/l, 6 hours): 1.7
- Fold change of gene expression, mean (gene IL2): −6.0
- Net effect of the NBC on fold change, mean (gene IL2, 60 mg/l, 6 hours): −3.0
- Fold change of gene expression, mean (gene MMP2): −5.0
- Net effect of the NBC on fold change, mean (gene MMP2, 60 mg/l, 6 hours): 5.0
- Fold change of gene expression, mean (gene NOS2): −6.0
- Net effect of the NBC on fold change, mean (gene NOS2, 60 mg/l, 6 hours): −5.8
- Fold change of gene expression, mean (gene PTGS-2): −5.0
- Net effect of the NBC on fold change, mean (gene PTGS-2, 60 mg/l, 6 hours): −3.8
- Fold change of gene expression, mean (gene SPARC): 0.0
- Net effect of the NBC on fold change, mean (gene SPARC, 60 mg/l, 6 hours): 6.3
- Fold change of gene expression, mean (gene STMN1): 0.0
- Net effect of the NBC on fold change, mean (gene STMN1, 60 mg/l, 6 hours): 6.2
- Fold change of gene expression, mean (gene TIMP1): 0.0
- Net effect of the NBC on fold change, mean (gene TIMP1, 60 mg/l, 6 hours): 6.2
- Fold change of gene expression, mean (gene TIMP2): 0.0
- Net effect of the NBC on fold change, mean (gene TIMP2, 60 mg/l, 6 hours): 2.0
- Fold change of gene expression, mean (gene TNF-a): −8.0
- Net effect of the NBC on fold change, mean (gene TNF-a, 60 mg/l, 6 hours): 2.0
- Fold change of gene expression, mean (gene TUBA): 0.0
- Net effect of the NBC on fold change, mean (gene TUBA, 60 mg/l, 6 hours): 4.7
- Fold change of gene expression, mean (gene TUBB): 0.0
- Net effect of the NBC on fold change, mean (gene TUBB, 60 mg/l, 6 hours): 4.8

Compound: C=C1CC[C@@H]2[C@](C)(CO)[C@H](O)CC[C@@]2(C)[C@@H]1C/C=C1/C(=O)OC[C@H]1O [andrographolide]
- Anti-inflammatory activity [1]: possesses an anti-inflammatory activity
- Match with the regulation of the genes up- or down-regulated in affected unhealthy cartilage cells [1]: does not exactly match the regulation of all the genes

Compound: COc1cc(/C=C/C(=O)CC(=O)/C=C/c2ccc(O)c(OC)c2)ccc1O [curcumin]
- Match with the regulation of the genes up- or down-regulated in affected unhealthy cartilage cells [1]: completely satisfies these requirements
